Source: patent publication US12396948B2, “Pharmaceutical compositions for the treatment of ophthalmic conditions” (Rhodes Technologies, priority 2017, dated 2025)
Marks after values point to notes of the source that are not given here.

Experiments:
Assay type in all cases: physicochemical
[1] = Forced degradation of API, drug product emulsion and placebo (Examples 30 and 32)
Description: In this example, a forced degradation study was performed on the API, drug product emulsion, and a placebo. Only w/w % impurities are presented.
In this example, an additional forced degradation study was performed. Harsh conditions for oxidation (H2O2 concentration increased from 1% to 3%, exposure increased from 30 min to 2 hr) and conditions for photolytic degradation (exposure decreased from 24 hr to 40 min) were used in an additional forced degradation study.

[2] = AE14B trial batch #3 assay/impurities during process (Examples 22 and 23)
[3] = Chemical analysis of AE10C Trial #1 in-process samples and finished product (Example 36); conditions: Dronabinol AE10C Formulation, Trial #1 samples
[4] = Assay/impurities of AE14B trial batch #1 (Examples 17 and 19); conditions: API as dispensed
[5] = Oxidation 1% H2O2 0.5 hr, 1st study
[6] = Oxidation 3% H2O2 2 hr, 2nd study

## CCCCCc1cc(O)c2c(c1)OC(C)(C)[C@@H]1CCC(C)=C[C@@H]21 [API]
[1]; Acid 24 hr, 1st study
  % Area: 96.0 % Area
  % w/w Impurities CBN: 1.54 % w/w
  % w/w Impurities RRT 0.30: 0.08 % w/w
  % w/w Impurities RRT 0.40: 0.71 % w/w
  % w/w Impurities RRT 0.46: 0.22 % w/w
  % w/w Impurities RRT 0.49: 0.37 % w/w
  % w/w Impurities RRT 0.56: 0.18 % w/w
  % w/w Impurities RRT 0.62: 0.37 % w/w
  % w/w Impurities Total: 3.5 % w/w
  Assay % LC: 83.6 % LC
[1]; Base 24 hr, 1st study
  % Area: 95.3 % Area
  % w/w Impurities CBN: 1.19 % w/w
  % w/w Impurities RRT 0.30: 0.13 % w/w
  % w/w Impurities RRT 0.40: 1.72 % w/w
  % w/w Impurities RRT 0.46: 0.30 % w/w
  % w/w Impurities RRT 0.56: 0.42 % w/w
  % w/w Impurities RRT 0.62: 0.31 % w/w
  % w/w Impurities Total: 4.1 % w/w
  Assay % LC: 82.9 % LC
[1]; Control, 1st study
  % Area: 97.5 % Area
  % w/w Impurities CBD: 0.52 % w/w
  % w/w Impurities CBN: 1.41 % w/w
  % w/w Impurities RRT 0.46: 0.28 % w/w
  % w/w Impurities Total: 2.2 % w/w
  Assay % LC: 85.8 % LC
[1]; Control, 2nd study
  % Area: 97.4 % Area
  % w/w Impurities CBD: 0.58 % w/w
  % w/w Impurities CBN: 1.41 % w/w
  % w/w Impurities RRT 0.46: 0.26 % w/w
  % w/w Impurities Total: 2.3 % w/w
  Assay % LC: 85.8 % LC
[1]; [5]
  % Area: 97.5 % Area
  % w/w Impurities CBN: 1.27 % w/w
  % w/w Impurities RRT 0.46: 0.25 % w/w
  % w/w Impurities RRT 0.62: 0.49 % w/w
  % w/w Impurities Total: 2.0 % w/w
  Assay % LC: 78.6 % LC
[1]; [6]
  % Area: 97.0 % Area
  % w/w Impurities CBD: 0.62 % w/w
  % w/w Impurities CBN: 0.79 % w/w
  % w/w Impurities RRT 0.46: 0.29 % w/w
  % w/w Impurities RRT 0.56: 0.20 % w/w
  % w/w Impurities RRT 0.93: 0.65 % w/w
  % w/w Impurities Total: 2.6 % w/w
  Assay % LC: 83.7 % LC
[1]; Photolytic 40 min, 2nd study
  % Area: 79.1 % Area
  % w/w Impurities CBD: 8.20 % w/w
  % w/w Impurities CBN: 1.00 % w/w
  % w/w Impurities RRT 0.30: 0.07 % w/w
  % w/w Impurities RRT 0.44: 0.68 % w/w
  % w/w Impurities RRT 0.46: 1.35 % w/w
  % w/w Impurities RRT 0.52: 1.56 % w/w
  % w/w Impurities RRT 0.56: 0.17 % w/w
  % w/w Impurities RRT 0.70: 0.62 % w/w
  % w/w Impurities RRT 0.82: 0.22 % w/w
  % w/w Impurities RRT 1.35: 0.21 % w/w
  % w/w Impurities RRT 1.40: 0.21 % w/w
  % w/w Impurities RRT 1.45: 0.52 % w/w
  % w/w Impurities RRT 1.48: 0.40 % w/w
  % w/w Impurities Total: 15.2 % w/w
  Assay % LC: 57.5 % LC
[1]; Photolytic 24 hr, 1st study
  % Area: 11.3 % Area
  % w/w Impurities CBN: 6.75 % w/w
  % w/w Impurities RRT 0.39: 0.79 % w/w
  % w/w Impurities RRT 0.40: 0.66 % w/w
  % w/w Impurities RRT 0.46: 4.05 % w/w
  % w/w Impurities RRT 0.49: 2.55 % w/w
  % w/w Impurities RRT 0.62: 1.45 % w/w
  % w/w Impurities RRT 0.75: 0.25 % w/w
  % w/w Impurities RRT 0.82: 0.49 % w/w
  % w/w Impurities RRT 1.19: 0.83 % w/w
  % w/w Impurities RRT 1.45: 0.07 % w/w
  % w/w Impurities Total: 17.9 % w/w
  Assay % LC: 2.3 % LC
[1]; Stress condition Acid
  Impurity Change CBD: 2 (2: Increase in API)
  Impurity Change RRT 0.40: 2 (2: Increase in API)
  Impurity Change RRT 0.46: — (Blank cell: no effect)
  Impurity Change RRT 0.62: 2 (2: Increase in API)
  Impurity Change RRT 0.93: — (Blank cell: no effect)
[1]; Stress condition Base
  Impurity Change CBD: 2 (2: Increase in API)
  Impurity Change CBN: — (Blank cell: no effect)
  Impurity Change RRT 0.40: 2 (2: Increase in API)
  Impurity Change RRT 0.46: — (Blank cell: no effect)
  Impurity Change RRT 0.62: 2 (2: Increase in API)
  Impurity Change RRT 0.93: — (Blank cell: no effect)
[1]; Stress condition Oxidation
  Impurity Change CBD: 2 (2: Increase in API)
  Impurity Change CBN: — (Blank cell: no effect)
  Impurity Change RRT 0.40: — (Blank cell: no effect)
  Impurity Change RRT 0.46: — (Blank cell: no effect)
  Impurity Change RRT 0.62: 2 (2: Increase in API)
  Impurity Change RRT 0.93: — (Blank cell: no effect)
[1]; Stress condition Photolytic
  Impurity Change CBD: 2 (2: Increase in API)
  Impurity Change CBN: 2 (2: Increase in API)
  Impurity Change RRT 0.40: 2 (2: Increase in API)
  Impurity Change RRT 0.46: 2 (2: Increase in API)
  Impurity Change RRT 0.62: 2 (2: Increase in API)
[1]; Stress condition Thermal
  Impurity Change CBD: 2 (2: Increase in API)
  Impurity Change CBN: 2 (2: Increase in API)
  Impurity Change RRT 0.46: 2 (2: Increase in API)
[1]; Thermal 24 hr, 1st study
  % Area: 77.5 % Area
  % w/w Impurities CBD: 2.43 % w/w
  % w/w Impurities CBN: 9.03 % w/w
  % w/w Impurities RRT 0.30: 0.15 % w/w
  % w/w Impurities RRT 0.44: 0.47 % w/w
  % w/w Impurities RRT 0.46: 0.56 % w/w
  % w/w Impurities RRT 0.52: 0.40 % w/w
  % w/w Impurities RRT 0.56: 0.22 % w/w
  % w/w Impurities RRT 0.70: 0.29 % w/w
  % w/w Impurities RRT 1.19: 0.54 % w/w
  % w/w Impurities RRT 1.27: 0.26 % w/w
  % w/w Impurities RRT 1.40: 0.50 % w/w
  % w/w Impurities RRT 1.45: 0.34 % w/w
  % w/w Impurities RRT 1.48: 0.14 % w/w
  % w/w Impurities Total: 15.3 % w/w
  Assay % LC: 52.8 % LC
[1]; second study, photolytic degradation, 40 min light exposure
  Assay decrease: ~30%
[2]; API Sample
  % Area (THC from Imp): 99.6 % Area
  % Area of Impurities: CBN: 0.18 % Area
  % Area of Impurities: RRT 0.46: <0.1 % Area
  % Area of Impurities: RRT 0.93: 0.18 % Area
  % Area of Impurities: Total: 0.4 % Area
  % w/w of Impurities: CBN: 0.15 % w/w
  % w/w of Impurities: RRT 0.46: <0.1 % w/w
  % w/w of Impurities: RRT 0.93: 0.15 % w/w
  % w/w of Impurities: Total: 0.3 % w/w
  API % w/w: 38.29 % w/w
  Assay % LC: 79.12 % LC
  Conc.: 38.29 % w/w
  Impurity CBN: 0.18 % Area
  Impurity RRT 0.93: 0.18 % Area
  Osmolarity (mOsm/L): 228 mOsm/L
  Total impurities: 0.4 % Area
  pH: 6.60
[2]; API Sample column
  Osmolarity: 228 mOsm/L
  pH: 6.60
[2]; Batch #3
  total impurities excluding late eluting excipient impurities (RRT 1.22 and later): 0.4 % area
[2]; Repeated API Sample
  API % w/w: 44.2 % w/w
  Assay % LC: 91.29 % LC
[3]
  Assay % LC: 87.2 % LC
  Impurity (% Area) CBD: 0.62 % Area
  Impurity (% Area) RRT 0.46: 0.19 % Area
  Impurity (% Area) RRT 0.70: 0.52 % Area
  Impurity (% Area) Total: 1.3 % Area
  Impurity (% w/w) CBN: 0.55 % w/w
  Impurity (% w/w) RRT 0.46: 0.17 % w/w
  Impurity (% w/w) RRT 0.93: 0.46 % w/w
  Impurity (% w/w) Total: 1.2 % w/w
[4]
  Impurity CBN: 0.18 % Area
  THC % Area: 99.84 % Area
  Total impurities: 0.2 % Area
[4]; calculated using 48.4% based on the certificate of analysis
  THC Assay: 96.63* % LC
